Results taken from ChEMBL document CHEMBL5046279, “Discovery of a Partial Glucokinase Activator Clinical Candidate: Diethyl ((3-(3-((5-(Azetidine-1-carbonyl)pyrazin-2-yl)oxy)-5-isopropoxybenzamido)-1H-pyrazol-1-yl)methyl)phosphonate (BMS-820132)” (J Med Chem, 2022).
Calls of active or inactive are those of the source.

What was measured:
Format in all cases: functional, organism-based
Mus musculus [1] = assay: Anti-hyperglycemic activity in C57BL/6J DIO mouse assessed as reduction in plasma glucose level at 3 to 30 umol/kg measured on day 1 by OGTT; conditions: dose 3-30 µM/Kg
Mus musculus [2] = species on record: Mus musculus; assay: Anti-hyperglycemic activity in C57BL/6J DIO mouse assessed as reduction in plasma glucose level incubated for 1 hr by OGTT; conditions: dose 1-10 µM/Kg
Mus musculus [3] = assay: Anti-hyperglycemic activity in C57BL/6J DIO mouse assessed as reduction in plasma glucose level at 0.3 umol/kg at 120 mins post dose by OGTT; conditions: dose 0.3 µM/Kg

Measured: Activity

CCOP(=O)(Cn1ccc(NC(=O)c2cc(Oc3cnc(C(=O)N4CCC4)cn3)cc(OC(C)C)c2)n1)OCC
active: Mus musculus [1] | Mus musculus [2] Dose-Dependent Effect | Mus musculus [3]
